How the values were obtained:
D(2) dopamine receptor = D(2) dopamine receptor (Homo sapiens, UniProt P14416); assay: Binding affinity towards cloned human Dopamine receptor D2 was determined
D(4) dopamine receptor [1] = target: T1, D(4) dopamine receptor (Homo sapiens, UniProt P21917); assay: Binding affinity to recombinant human dopamine receptor D4
T1 sequence (P21917 whole entry): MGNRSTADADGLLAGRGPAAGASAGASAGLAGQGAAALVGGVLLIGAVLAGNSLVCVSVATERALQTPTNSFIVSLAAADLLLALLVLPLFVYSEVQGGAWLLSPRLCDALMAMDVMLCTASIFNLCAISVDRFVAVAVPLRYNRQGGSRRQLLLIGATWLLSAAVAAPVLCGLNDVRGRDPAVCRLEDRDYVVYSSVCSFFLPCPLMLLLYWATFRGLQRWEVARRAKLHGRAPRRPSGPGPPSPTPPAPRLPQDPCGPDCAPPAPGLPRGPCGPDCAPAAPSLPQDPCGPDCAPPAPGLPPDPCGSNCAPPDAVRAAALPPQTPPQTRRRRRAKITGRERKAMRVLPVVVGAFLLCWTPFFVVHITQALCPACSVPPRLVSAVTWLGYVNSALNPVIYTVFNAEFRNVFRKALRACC

[2] = target: T2, D(4) dopamine receptor (Homo sapiens) (UniProt P21917); assay: Association constant towards cloned human dopamine D4 receptor was determined
T2 sequence (whole entry): T1 sequence (P21917 whole entry)

[3] = Half life in human microsomes; type: ADME, Microsome
[4] = target: Serotonin 2 (5-HT2) receptor (Homo sapiens, UniProt P41595+P28223+P28335); assay: Binding affinity towards cloned human 5-hydroxytryptamine 2 receptor was determined; type: protein assay
[5] = target: T3, Adrenergic receptor alpha-1 (Homo sapiens, UniProt P35348+P25100+P35368); assay: Binding affinity towards cloned human Alpha-1 adrenergic receptor was determined; type: protein assay
T3 sequence (P35348 whole entry): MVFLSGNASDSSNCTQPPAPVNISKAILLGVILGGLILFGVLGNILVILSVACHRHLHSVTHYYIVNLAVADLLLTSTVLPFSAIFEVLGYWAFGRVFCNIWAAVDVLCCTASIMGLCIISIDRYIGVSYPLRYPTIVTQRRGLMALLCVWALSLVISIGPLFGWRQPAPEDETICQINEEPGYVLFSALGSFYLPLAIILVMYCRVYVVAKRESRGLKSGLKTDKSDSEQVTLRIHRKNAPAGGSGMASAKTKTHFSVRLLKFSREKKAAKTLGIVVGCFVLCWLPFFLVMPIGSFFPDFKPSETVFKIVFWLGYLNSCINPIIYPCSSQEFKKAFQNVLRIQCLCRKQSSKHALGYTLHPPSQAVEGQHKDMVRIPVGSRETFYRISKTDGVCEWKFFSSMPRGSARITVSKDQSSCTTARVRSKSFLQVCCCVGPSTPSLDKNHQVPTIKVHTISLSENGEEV
T3 sequence (P25100 whole entry): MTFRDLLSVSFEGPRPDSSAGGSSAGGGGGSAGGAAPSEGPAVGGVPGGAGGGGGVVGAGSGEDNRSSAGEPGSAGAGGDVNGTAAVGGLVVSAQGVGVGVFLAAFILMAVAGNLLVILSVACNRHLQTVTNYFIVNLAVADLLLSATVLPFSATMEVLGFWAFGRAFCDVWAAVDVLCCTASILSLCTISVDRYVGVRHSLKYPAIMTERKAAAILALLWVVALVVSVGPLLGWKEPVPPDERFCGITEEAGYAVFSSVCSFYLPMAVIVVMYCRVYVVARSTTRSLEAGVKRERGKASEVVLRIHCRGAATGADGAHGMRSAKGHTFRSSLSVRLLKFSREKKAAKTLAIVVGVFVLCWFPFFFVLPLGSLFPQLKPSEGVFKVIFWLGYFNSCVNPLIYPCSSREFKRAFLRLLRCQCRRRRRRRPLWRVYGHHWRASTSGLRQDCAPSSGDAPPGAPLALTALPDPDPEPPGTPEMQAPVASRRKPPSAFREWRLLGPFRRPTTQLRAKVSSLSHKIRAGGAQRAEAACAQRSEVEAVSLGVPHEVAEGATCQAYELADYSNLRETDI
T3 sequence (P35368 whole entry): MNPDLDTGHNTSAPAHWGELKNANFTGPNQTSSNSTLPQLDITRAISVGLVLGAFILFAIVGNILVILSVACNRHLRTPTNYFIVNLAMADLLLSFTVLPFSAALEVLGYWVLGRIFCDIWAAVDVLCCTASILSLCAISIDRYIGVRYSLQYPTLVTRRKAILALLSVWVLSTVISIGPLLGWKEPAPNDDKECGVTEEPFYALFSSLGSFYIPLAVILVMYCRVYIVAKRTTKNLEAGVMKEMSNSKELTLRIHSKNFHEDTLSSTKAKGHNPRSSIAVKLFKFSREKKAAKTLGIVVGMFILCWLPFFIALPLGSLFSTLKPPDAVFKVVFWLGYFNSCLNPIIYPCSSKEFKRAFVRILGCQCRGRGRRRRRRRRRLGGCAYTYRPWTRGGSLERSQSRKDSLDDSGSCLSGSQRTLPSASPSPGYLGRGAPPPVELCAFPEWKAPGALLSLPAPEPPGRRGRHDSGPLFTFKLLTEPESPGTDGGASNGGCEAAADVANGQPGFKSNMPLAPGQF

[6] = target: T4, 5-hydroxytryptamine receptor 1A (Homo sapiens, UniProt P08908); assay: Binding affinity towards cloned human 5-hydroxytryptamine 1A receptor was determined
T4 sequence (P08908 whole entry): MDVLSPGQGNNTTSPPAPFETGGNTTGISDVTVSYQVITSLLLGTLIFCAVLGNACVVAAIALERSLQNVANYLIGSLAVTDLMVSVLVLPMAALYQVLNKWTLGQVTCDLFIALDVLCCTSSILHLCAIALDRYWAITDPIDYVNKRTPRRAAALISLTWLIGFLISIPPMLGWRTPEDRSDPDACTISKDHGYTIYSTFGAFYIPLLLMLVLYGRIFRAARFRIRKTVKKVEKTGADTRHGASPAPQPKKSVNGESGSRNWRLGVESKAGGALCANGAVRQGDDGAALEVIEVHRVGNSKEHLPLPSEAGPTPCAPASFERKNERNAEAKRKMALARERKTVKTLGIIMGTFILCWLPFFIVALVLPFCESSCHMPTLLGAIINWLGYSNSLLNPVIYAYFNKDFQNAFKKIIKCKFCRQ

D(4) dopamine receptor [7] = target: T1, D(4) dopamine receptor; assay: Antagonistic activity against human Dopamine receptor D4.2 using [35S]GTP-gamma-S binding assay
[8] = target: T5, Adrenergic receptor alpha-2 (Homo sapiens, UniProt P08913+P18825+P18089); assay: Binding affinity towards cloned human Alpha-2 adrenergic receptor was determined; type: protein assay
T5 sequence (P08913 whole entry): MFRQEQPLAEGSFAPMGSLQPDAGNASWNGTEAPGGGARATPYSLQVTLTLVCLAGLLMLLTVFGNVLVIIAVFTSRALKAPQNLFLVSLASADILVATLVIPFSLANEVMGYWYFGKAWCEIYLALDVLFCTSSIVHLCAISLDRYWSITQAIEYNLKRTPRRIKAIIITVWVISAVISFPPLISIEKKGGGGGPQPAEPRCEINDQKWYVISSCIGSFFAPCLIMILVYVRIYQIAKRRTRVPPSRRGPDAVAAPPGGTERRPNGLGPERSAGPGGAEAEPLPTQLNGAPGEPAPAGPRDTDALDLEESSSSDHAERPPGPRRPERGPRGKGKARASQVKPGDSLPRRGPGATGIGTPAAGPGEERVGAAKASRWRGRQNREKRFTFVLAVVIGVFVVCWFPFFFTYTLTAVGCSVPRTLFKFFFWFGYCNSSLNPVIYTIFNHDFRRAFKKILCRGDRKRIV
T5 sequence (P18825 whole entry): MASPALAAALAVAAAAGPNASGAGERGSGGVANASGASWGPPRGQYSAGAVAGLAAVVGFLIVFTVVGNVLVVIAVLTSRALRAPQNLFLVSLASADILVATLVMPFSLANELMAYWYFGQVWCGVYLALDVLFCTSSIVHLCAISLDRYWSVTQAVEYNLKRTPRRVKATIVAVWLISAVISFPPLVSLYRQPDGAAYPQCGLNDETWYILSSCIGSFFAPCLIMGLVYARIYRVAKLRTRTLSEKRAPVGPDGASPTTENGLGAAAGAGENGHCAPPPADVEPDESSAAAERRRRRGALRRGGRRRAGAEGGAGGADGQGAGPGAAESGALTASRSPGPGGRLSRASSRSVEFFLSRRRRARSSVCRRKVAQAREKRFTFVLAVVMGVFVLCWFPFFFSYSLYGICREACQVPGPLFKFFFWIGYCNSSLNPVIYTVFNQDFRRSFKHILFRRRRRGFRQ
T5 sequence (P18089 whole entry): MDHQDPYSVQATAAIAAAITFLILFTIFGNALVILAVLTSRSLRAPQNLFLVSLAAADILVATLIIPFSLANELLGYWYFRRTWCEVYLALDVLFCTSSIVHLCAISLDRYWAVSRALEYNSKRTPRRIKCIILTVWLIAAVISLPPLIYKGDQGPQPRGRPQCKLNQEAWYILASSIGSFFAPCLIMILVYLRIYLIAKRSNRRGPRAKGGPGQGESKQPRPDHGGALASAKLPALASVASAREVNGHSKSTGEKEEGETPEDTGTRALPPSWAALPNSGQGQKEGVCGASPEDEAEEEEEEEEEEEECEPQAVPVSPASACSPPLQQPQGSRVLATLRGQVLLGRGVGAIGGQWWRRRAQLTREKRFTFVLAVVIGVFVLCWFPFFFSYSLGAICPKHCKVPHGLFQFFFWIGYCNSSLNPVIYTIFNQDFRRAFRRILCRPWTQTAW

[9] = mLogP was determined; type: physicochemical; conditions: octanol/water; read-out: mLog P
D(1A) dopamine receptor = D(1A) dopamine receptor (Homo sapiens, UniProt P21728); assay: Binding affinity towards Dopamine receptor D1 was determined
Sequence of D(1A) dopamine receptor (P21728 whole entry): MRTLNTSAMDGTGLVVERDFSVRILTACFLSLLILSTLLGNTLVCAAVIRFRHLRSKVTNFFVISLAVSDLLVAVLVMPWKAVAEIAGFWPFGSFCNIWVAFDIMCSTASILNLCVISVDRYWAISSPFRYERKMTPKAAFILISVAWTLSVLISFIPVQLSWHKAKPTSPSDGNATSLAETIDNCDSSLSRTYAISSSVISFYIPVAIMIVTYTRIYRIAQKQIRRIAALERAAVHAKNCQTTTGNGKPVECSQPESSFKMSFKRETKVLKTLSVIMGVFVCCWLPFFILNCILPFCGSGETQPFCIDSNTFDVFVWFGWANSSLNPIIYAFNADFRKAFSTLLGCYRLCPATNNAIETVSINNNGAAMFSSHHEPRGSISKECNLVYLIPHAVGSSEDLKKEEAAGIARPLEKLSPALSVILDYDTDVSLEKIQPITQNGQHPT

D(3) dopamine receptor = D(3) dopamine receptor (Homo sapiens, UniProt P35462); assay: Binding affinity towards cloned human Dopamine receptor D3 was determined
Sequence of D(3) dopamine receptor (P35462 whole entry): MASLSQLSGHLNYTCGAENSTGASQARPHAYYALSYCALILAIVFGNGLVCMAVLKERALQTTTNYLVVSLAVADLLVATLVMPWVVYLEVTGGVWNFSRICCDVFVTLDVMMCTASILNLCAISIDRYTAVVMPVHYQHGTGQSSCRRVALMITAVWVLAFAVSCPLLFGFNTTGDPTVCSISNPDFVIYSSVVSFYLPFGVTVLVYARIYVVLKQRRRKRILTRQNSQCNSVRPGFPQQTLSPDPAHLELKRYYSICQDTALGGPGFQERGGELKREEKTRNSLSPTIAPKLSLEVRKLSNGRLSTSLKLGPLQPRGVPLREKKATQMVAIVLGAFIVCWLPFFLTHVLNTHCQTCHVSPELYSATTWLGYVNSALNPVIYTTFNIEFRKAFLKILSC

D(1B) dopamine receptor = D(1B) dopamine receptor (Homo sapiens, UniProt P21918); assay: Binding affinity towards cloned human Dopamine receptor D5 was determined
Sequence of D(1B) dopamine receptor (P21918 whole entry): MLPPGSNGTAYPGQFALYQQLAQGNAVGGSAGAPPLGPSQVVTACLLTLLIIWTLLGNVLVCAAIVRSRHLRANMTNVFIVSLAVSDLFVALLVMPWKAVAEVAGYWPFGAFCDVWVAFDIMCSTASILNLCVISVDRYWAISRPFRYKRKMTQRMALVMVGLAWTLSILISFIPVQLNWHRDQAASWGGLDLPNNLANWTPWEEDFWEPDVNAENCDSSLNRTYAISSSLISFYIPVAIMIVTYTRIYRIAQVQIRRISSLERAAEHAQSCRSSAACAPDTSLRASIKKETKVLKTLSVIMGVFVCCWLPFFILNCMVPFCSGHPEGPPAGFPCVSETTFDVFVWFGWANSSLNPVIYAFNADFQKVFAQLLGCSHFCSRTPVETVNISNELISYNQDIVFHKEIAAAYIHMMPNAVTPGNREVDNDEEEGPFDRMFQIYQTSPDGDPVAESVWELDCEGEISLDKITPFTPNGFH

Sequence of D(2) dopamine receptor (P14416 whole entry): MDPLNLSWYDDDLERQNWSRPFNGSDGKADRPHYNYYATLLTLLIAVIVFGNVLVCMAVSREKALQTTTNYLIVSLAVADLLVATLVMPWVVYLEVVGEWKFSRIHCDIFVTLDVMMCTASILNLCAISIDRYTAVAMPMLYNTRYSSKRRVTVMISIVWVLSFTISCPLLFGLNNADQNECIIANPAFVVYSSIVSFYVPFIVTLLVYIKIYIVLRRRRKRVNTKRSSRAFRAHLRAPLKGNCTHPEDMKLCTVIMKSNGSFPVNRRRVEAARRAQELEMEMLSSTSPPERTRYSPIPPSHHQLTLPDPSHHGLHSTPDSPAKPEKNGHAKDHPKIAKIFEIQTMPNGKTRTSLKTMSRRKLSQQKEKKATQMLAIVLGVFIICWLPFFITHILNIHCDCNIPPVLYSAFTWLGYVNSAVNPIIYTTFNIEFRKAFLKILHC

Structure (SMILES) | Ki (D(2) dopamine receptor) | Ki (D(4) dopamine receptor [1]) | also measured
Cc1oc(C)c2c1CCCc1cnn(C)c1-2 | 28 nM | 11 nM | –
Clc1sc(Cl)c2c1CCCc1c[nH]nc1-2 | 534 nM | 169 nM | –
Cc1sc(C)c2c1CC(C)(C)Cc1c[nH]nc1-2 | > 10000 nM | 1300 nM | –
Cc1sc(C)c2c1CCCc1cnn(C(C)C)c1-2 | 555 nM | 138 nM | –
Cc1sc(C)c2c1SCc1cnn(C)c1-2 | 111 nM | 3 nM | pKa [2]: 3.06; half-life [3]: < 1 min
Cn1ncc2c1-c1ccccc1CCC2 | > 10000 nM | > 10000 nM | –
Cc1sc(C)c2c1CCCc1nccn1-2 | > 10000 nM | 301 nM | –
CCn1ncc2c1-c1c(Cl)sc(Cl)c1CCC2 | 489 nM | 168 nM | –
CCn1ncc2c1-c1c(C)sc(C)c1CCC2 | 402 nM | 22 nM | –
Cc1oc(C)c2c1CCCc1c[nH]nc1-2 | – | 275 nM | –
Cc1sc(C)c2c1CCc1cn(C)nc1-2 | – | 2870 nM | –
Clc1sc(Cl)c2c1CCCc1cnn(Cc3ccccc3)c1-2 | > 10000 nM | > 10000 nM | –
Cc1sc(C)c2c1CCCc1cn(C)nc1-2 | 641 nM | 228 nM | –
CCCn1ncc2c1-c1c(Cl)sc(Cl)c1CCC2 | > 10000 nM | 3550 nM | –
Cn1cc2c(n1)-c1ccccc1CCC2 | > 10000 nM | 507 nM | –

Further lines, with some results ahead:

Ki (D(2) dopamine receptor) | Ki (D(4) dopamine receptor [1]) | Structure (SMILES) | also measured
> 10000 nM | 1580 nM | Cc1sc(C)c2c1CCCc1cnn(-c3ccccc3)c1-2 | –
> 10000 nM | > 10000 nM | c1ccc2c(c1)CCCc1c[nH]nc1-2 | –
> 10000 nM | 1290 nM | Cc1sc(C)c2c1CCCc1ncn(C)c1-2 | –
– | 170 nM | Cc1sc(C)c2c1CCc1c[nH]nc1-2 | –
416 nM | 14 nM | Cn1ncc2c1-c1c(Cl)sc(Cl)c1CCC2 | –
462 nM | 26 nM | Cc1sc(C)c2c1CCc1cnn(C)c1-2 | –
> 10000 nM | 4320 nM | Cc1sc(C)c2c1CCCc1nncn1-2 | –
> 10000 nM | 425 nM | Cc1ccc(C)c2c1CCCc1c[nH]nc1-2 | –
– | 2560 nM | Cc1sc(C)c2c1CCCc1c-2n[nH]c1CN(C)C | –
– | > 10000 nM | Cc1sc(C)c2c1CN(C)Cc1c[nH]nc1-2 | –
885 nM | 97 nM | CCCn1ncc2c1-c1c(C)sc(C)c1CCC2 | –
2070 nM | 12 nM | Cc1sc(C)c2c1CCCc1c[nH]nc1-2 | Ki [4]: 2087 nM; Ki [5]: > 10000 nM; Ki [6]: > 1000 nM; EC50 (D(4) dopamine receptor [7]): 9 nM; Ki [8]: > 7800 nM; logP [9]: 2.48; Ki (D(1A) dopamine receptor): > 10000 nM; Ki (D(3) dopamine receptor): > 10000 nM; Ki (D(1B) dopamine receptor): > 10000 nM; half-life [3]: 6 min
176 nM | 2 nM | Cc1sc(C)c2c1CCCc1cnn(C)c1-2 | –
> 10000 nM | 1560 nM | CC(C)n1ncc2c1-c1c(Cl)sc(Cl)c1CCC2 | –
> 10000 nM | 462 nM | Cc1sc(C)c2c1CCCc1nnc(C)n1-2 | –
